Reference: US7925520B2, “Methods of predicting dose of drug and program for predicting dose of drug” (priority 2007, dated 2011)
“And” between values parts separate entries of the source, which are not always exact repeats. Equal entries are not always repeated. Where two headings read alike, the source gives them in different places.

Key:
[1] = Prediction of Log(M*/C) from measured C and R by Equation 2; design: species or system rat; conditions: M* determined as a function of measured C and R values (Eq. 2)
[2] = Measurement 2: migration C of drug ion under skin-absent condition (through anion exchange membrane into physiological salt solution); assay type: physicochemical; conditions: for C (migration of drug ion under skin-absent condition): 6.25 mM drug solution, constant current 0.94 mA for 60 minutes, average of 3; for LogC: log of migration C, 6.25 mM, 0.94 mA, 60 minutes
Description: (§1) In some embodiments, a working side assembly 10 of the device 1 may include a working side electrode (negative electrode) 11; an electrolyte solution holding portion 12 for holding a physiological salt solution; a cation exchange membrane 13 on the front surface side of the electrolyte solution holding portion; a drug solution holding portion 14 for holding a drug solution on the front surface side of the cation exchange membrane 13; and an anion exchange membrane 15 on the front surface side of the drug solution holding portion.
(§2) In some embodiments, a non-working side assembly 20 of the device 1 may include a non-working side electrode (positive electrode) 21; an electrolyte solution holding portion 22 for holding a physiological salt solution; an anion exchange membrane 23 on the front surface side of the electrolyte solution holding portion 22; an electrolyte solution holding portion 24 for holding a physiological salt solution on the front surface side of the anion exchange membrane 23; and a cation exchange membrane 25 on the front surface side of the electrolyte solution holding portion 24. It should be noted that an ion exchange membrane CLE 04-2 manufactured by Tokuyama Co., Ltd. was used as each of the ion exchange membrane 13 and the ion exchange membrane 25, and an ion exchange membrane ALE 04-2 manufactured by Tokuyama Co., Ltd. was used as each of the ion exchange membrane 15 and the ion exchange membrane 23.
The drug solution composition of the drug solution holding portion 14, energization conditions, and the like were identical to those of Measurement 1.
The above measurement was performed 3 times for each sample, and the average value of the measurements was determined as the migration C.

[3] = Measurement 3: migration R of drug ion to liposome; assay type: physicochemical; conditions: 20 mM EPC liposome and 3.125 mM drug solution 1:1 by volume; 37° C., 18 hours; average of 3
Procedure: 20 mM of an EPC liposome (yolk phosphatidylcholine (lecithin)/particle diameter 290 to 490 nm) and 3.125 mM of a drug solution were mixed at a volume ratio of 1:1, and the mixture was incubated at 37° C. for 18 hours. After that, the resultant was centrifuged, and the amount of a drug ion in each of the supernatant and the precipitate was measured by HPLC, whereby the amount of the drug ion (unit: nmol/cm^3) that had migrated to the EPC liposome was measured.
The above measurement was performed 3 times for each sample, and the average value of the measurements was determined as the migration R.

[4] = Measurement 1: migration M of drug ion to skin with membrane type iontophoresis device; assay type: in vitro ADME, rat; conditions: for LogM: log of migration M, 6.25 mM, 0.94 mA, 60 minutes; for LogM / M (migration of drug ion to skin): rat back skin; for M (migration of drug ion to skin): 6.25 mM drug solution, constant current 0.94 mA for 60 minutes, average of 3
Description: as §1, §2
Energization was performed in a state where a corium layer 32 was brought into contact with the physiological salt solution of the electrolyte solution holding portion 26. After energization, the skin 30 was frozen and processed.
The above measurement was performed 3 times for each sample, and the average value of the measurements was determined as the migration M.

[5] = value from Scifinder database, cited from earlier work; for PSA: in Å2 (unit assumed)

1-Naphtaleneacetic acid [Napthaleneacetic acid]
Predicted Log(M*/C) [1]: −1.03 | C (migration of drug ion under skin-absent condition) [2]: 4806 nmol/mL | LogC [2]: 3.68 | LogR (migration R of drug ion to liposome) [3]: −0.47 | Log(M/C) [4]: −0.8 | PSA [5]: 37 and 37.3

O=C(O)Cc1ccccc1Nc1c(Cl)cccc1Cl [Diclofenac]
Predicted Log(M*/C) [1]: 0.1 | LogC [2]: 2.86 | Log(M/C) ([4]; from measured M and C): 0.3 | LogM [4]: 3.16

CCc1cccc2c3c([nH]c12)C(CC)(CC(=O)O)OCC3 (centres unmarked) [Etodolac]
Predicted Log(M*/C) [1]: −0.54 | LogC [2]: 3.41 | Log(M/C) ([4]; from measured M and C): −0.93 | LogM [4]: 2.48

O=C(O)Cc1ccc(-c2ccccc2)cc1 [Felbinac]
C (migration of drug ion under skin-absent condition) [2]: 3409 nmol/mL | LogC [2]: 3.53 | LogR (migration R of drug ion to liposome) [3]: 0.27 | LogD [5]: 0.83 | LogP [5]: 3.26

O=C(O)Cc1c[nH]c2ccccc12 [Indoleacetic acid, 3-Indoleacetic acid]
C (migration of drug ion under skin-absent condition) [2]: 7822 nmol/mL | LogC [2]: 3.89 | LogR (migration R of drug ion to liposome) [3]: −0.69 | LogD [5]: −1.37 | LogP [5]: 1.43

O=C(O)CCCc1c[nH]c2ccccc12 [Indolebutylic acid, Indolebutyric acid]
Predicted Log(M*/C) [1]: −0.87 | C (migration of drug ion under skin-absent condition) [2]: 3744 nmol/mL and 3774 nmol/mL | LogC [2]: 3.58 | LogR (migration R of drug ion to liposome) [3]: −0.26 | Log(M/C) [4]: −0.74 | PSA [5]: 53 and 53.1

COc1ccc2c(c1)c(CC(=O)O)c(C)n2C(=O)c1ccc(Cl)cc1 [Indomethacin]
Predicted Log(M*/C) [1]: −0.49 | C (migration of drug ion under skin-absent condition) [2]: 2189 nmol/mL | LogC [2]: 3.34 | LogR (migration R of drug ion to liposome) [3]: 0.23 | Log(M/C) ([4]; from measured M and C): −0.87 | LogM [4]: 2.47 | M (migration of drug ion to skin) [4]: 296 nmol/mL | LogD [5]: −0.13 | LogP [5]: 3.11 | PSA [5]: 64

CC(C(=O)O)c1cccc(C(=O)c2ccccc2)c1 (centres unmarked) [Ketoprofen]
Predicted Log(M*/C) [1]: −0.89 | C (migration of drug ion under skin-absent condition) [2]: 2432 nmol/mL | LogC [2]: 3.39 | LogR (migration R of drug ion to liposome) [3]: −0.29 | LogD [5]: 0.33 | PSA [5]: 54

O=C(O)c1ccccc1O [Salicylic acid]
Predicted Log(M*/C) [1]: −1.04 | C (migration of drug ion under skin-absent condition) [2]: 6800 nmol/mL | LogC [2]: 3.83 | LogR (migration R of drug ion to liposome) [3]: −0.49 | Log(M/C) ([4]; from measured M and C): −0.96 | LogM [4]: 2.87 | M (migration of drug ion to skin) [4]: 749 nmol/mL | LogD [5]: −1.08 | LogP [5]: 2.06 | PSA [5]: 58
